Reference: ChEMBL document CHEMBL1201862, “PubChem BioAssay data set” (2004)
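Cultured in 96-well plates, cells were exposed to test compound for 48 hours across five concentrations. GI50 = concentration required for 50% inhibition of growth.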 Activity calls are given as the source filed them. Cut-off read from the data, not from the text of the source: active = GI50 up to about 1.1 µM and inactive = higher.

Columns and labels:
Experiment in all cases: NCI anticancer screen, dose series, 48 h
786-0 = tested on: 786-0
A498 = tested on: A498
A549 = tested on: A549
ACHN = tested on: ACHN
CAKI-1 = tested on: CAKI-1
CCRF-CEM = tested on: CCRF-CEM
COLO 205 = tested on: COLO 205
DLD-1 = tested on: DLD-1
DMS-273 = tested on: DMS-273
EKVX = tested on: EKVX
HCC 2998 = tested on: HCC 2998
HCT-116 = tested on: HCT-116
HCT-15 = tested on: HCT-15
HL-60 = tested on: HL-60
HOP-18 = tested on: HOP-18
HOP-62 = tested on: HOP-62
HOP-92 = tested on: HOP-92
HT-29 = tested on: HT-29
IGROV-1 = tested on: IGROV-1
K562 = tested on: K562
KM-20L2 = tested on: KM-20L2
KM12 = tested on: KM12
LXFL 529 = tested on: LXFL 529
M14 = tested on: M14
M19-MEL = tested on: M19-MEL
MOLT-4 = tested on: MOLT-4
Malme-3M = tested on: Malme-3M
NCI-H226 = tested on: NCI-H226
NCI-H23 = tested on: NCI-H23
NCI-H460 = tested on: NCI-H460
NCI-H522 = tested on: NCI-H522
OVCAR-3 = tested on: OVCAR-3
OVCAR-4 = tested on: OVCAR-4
OVCAR-5 = tested on: OVCAR-5
OVCAR-8 = tested on: OVCAR-8
RPMI-8226 = tested on: RPMI-8226
SF-268 = tested on: SF-268
SF-295 = tested on: SF-295
SF-539 = tested on: SF-539
SK-MEL-28 = tested on: SK-MEL-28
SK-MEL-2 = tested on: SK-MEL-2
SK-MEL-5 = tested on: SK-MEL-5
SK-OV-3 = tested on: SK-OV-3
SN12C = tested on: SN12C
SNB-19 = tested on: SNB-19
SNB-75 = tested on: SNB-75
SNB-78 = tested on: SNB-78
SR = tested on: SR
SW-620 = tested on: SW-620
TK-10 = tested on: TK-10
U-251 = tested on: U-251
UACC-257 = tested on: UACC-257
UACC-62 = tested on: UACC-62
UO-31 = tested on: UO-31
LOX IMVI = tested on: LOX IMVI
RXF 393 = tested on: RXF 393
DMS-114 = tested on: DMS-114

## Nc1nc(N)c(-c2ccccc2)c(CCC(=O)Nc2ccc(Cl)cc2)n1
786-0
  GI50: > 100 µM (inactive)
A498
  GI50: > 100 µM (inactive)
A549
  GI50: > 100 µM (inactive)
ACHN
  GI50: > 100 µM (inactive)
CAKI-1
  GI50: > 100 µM (inactive)
CCRF-CEM
  GI50: > 100 µM (inactive)
COLO 205
  GI50: > 100 µM (inactive)
DLD-1
  GI50: > 100 µM (inactive)
DMS-273
  GI50: > 100 µM (inactive)
EKVX
  GI50: > 100 µM (inactive)
HCC 2998
  GI50: > 100 µM (inactive)
HCT-116
  GI50: > 100 µM (inactive)
HCT-15
  GI50: > 100 µM
HL-60
  GI50: > 100 µM (inactive)
HOP-18
  GI50: > 100 µM (inactive)
HOP-62
  GI50: > 100 µM (inactive)
HOP-92
  GI50: > 100 µM (inactive)
HT-29
  GI50: > 100 µM (inactive)
IGROV-1
  GI50: > 100 µM (inactive)
K562
  GI50: 76.2 µM (inactive)
KM-20L2
  GI50: > 100 µM (inactive)
KM12
  GI50: > 100 µM (inactive)
LXFL 529
  GI50: > 100 µM (inactive)
M14
  GI50: > 100 µM (inactive)
M19-MEL
  GI50: > 100 µM (inactive)
MOLT-4
  GI50: > 100 µM (inactive)
Malme-3M
  GI50: > 100 µM (inactive)
NCI-H226
  GI50: > 100 µM (inactive)
NCI-H23
  GI50: > 100 µM (inactive)
NCI-H460
  GI50: > 100 µM (inactive)
NCI-H522
  GI50: > 100 µM (inactive)
OVCAR-3
  GI50: > 100 µM (inactive)
OVCAR-4
  GI50: > 100 µM (inactive)
OVCAR-5
  GI50: > 100 µM (inactive)
OVCAR-8
  GI50: > 100 µM (inactive)
RPMI-8226
  GI50: > 100 µM (inactive)
SF-268
  GI50: > 100 µM (inactive)
SF-295
  GI50: > 100 µM (inactive)
SF-539
  GI50: > 100 µM (inactive)
SK-MEL-28
  GI50: > 100 µM (inactive)
SK-MEL-2
  GI50: > 100 µM (inactive)
SK-MEL-5
  GI50: > 100 µM (inactive)
SK-OV-3
  GI50: > 100 µM (inactive)
SN12C
  GI50: > 100 µM (inactive)
SNB-19
  GI50: > 100 µM (inactive)
SNB-75
  GI50: > 100 µM (inactive)
SNB-78
  GI50: > 100 µM (inactive)
SR
  GI50: > 100 µM (inactive)
SW-620
  GI50: > 100 µM (inactive)
TK-10
  GI50: > 100 µM (inactive)
U-251
  GI50: > 100 µM (inactive)
UACC-257
  GI50: > 100 µM (inactive)
UACC-62
  GI50: > 100 µM (inactive)
UO-31
  GI50: > 100 µM (inactive)

## Cc1c(O)c(O)cc[n+]1C1OC(CO)C(O)C1O (stereo not drawn)
786-0
  GI50: > 100 µM (inactive)
A498
  GI50: > 100 µM (inactive)
A549
  GI50: > 100 µM (inactive)
ACHN
  GI50: > 100 µM (inactive)
CAKI-1
  GI50: > 100 µM (inactive)
CCRF-CEM
  GI50: > 100 µM (inactive)
COLO 205
  GI50: > 100 µM (inactive)
DLD-1
  GI50: > 100 µM (inactive)
DMS-273
  GI50: > 100 µM (inactive)
EKVX
  GI50: > 100 µM (inactive)
HCC 2998
  GI50: > 100 µM (inactive)
HCT-116
  GI50: > 100 µM (inactive)
HCT-15
  GI50: > 100 µM
HOP-18
  GI50: > 100 µM (inactive)
HOP-92
  GI50: > 100 µM (inactive)
HT-29
  GI50: > 100 µM (inactive)
IGROV-1
  GI50: > 100 µM (inactive)
K562
  GI50: > 100 µM (inactive)
KM-20L2
  GI50: > 100 µM (inactive)
KM12
  GI50: > 100 µM (inactive)
LOX IMVI
  GI50: > 100 µM (inactive)
LXFL 529
  GI50: 33.1 µM (inactive)
M14
  GI50: > 100 µM (inactive)
M19-MEL
  GI50: > 100 µM (inactive)
Malme-3M
  GI50: > 100 µM (inactive)
NCI-H226
  GI50: > 100 µM (inactive)
NCI-H23
  GI50: > 100 µM (inactive)
NCI-H460
  GI50: > 100 µM (inactive)
NCI-H522
  GI50: > 100 µM (inactive)
OVCAR-4
  GI50: > 100 µM (inactive)
OVCAR-5
  GI50: > 100 µM (inactive)
OVCAR-8
  GI50: > 100 µM (inactive)
RPMI-8226
  GI50: > 100 µM (inactive)
RXF 393
  GI50: > 100 µM (inactive)
SF-268
  GI50: > 100 µM (inactive)
SK-MEL-28
  GI50: > 100 µM (inactive)
SK-MEL-2
  GI50: > 100 µM (inactive)
SK-OV-3
  GI50: > 100 µM (inactive)
SN12C
  GI50: > 100 µM (inactive)
SNB-19
  GI50: > 100 µM (inactive)
SNB-75
  GI50: > 100 µM (inactive)
SNB-78
  GI50: > 100 µM (inactive)
SW-620
  GI50: > 100 µM (inactive)
TK-10
  GI50: > 100 µM (inactive)
U-251
  GI50: > 100 µM (inactive)
UACC-257
  GI50: > 100 µM (inactive)
UACC-62
  GI50: > 100 µM (inactive)
UO-31
  GI50: > 100 µM (inactive)

## CSC(=N)NNC(=O)CCC(=O)Nc1ccccc1C(F)(F)F
786-0
  GI50: > 100 µM (inactive)
A498
  GI50: > 100 µM (inactive)
A549
  GI50: > 100 µM (inactive)
ACHN
  GI50: > 100 µM (inactive)
CAKI-1
  GI50: > 100 µM (inactive)
CCRF-CEM
  GI50: > 100 µM (inactive)
COLO 205
  GI50: > 100 µM (inactive)
DLD-1
  GI50: > 100 µM (inactive)
DMS-114
  GI50: > 100 µM (inactive)
DMS-273
  GI50: > 100 µM (inactive)
EKVX
  GI50: > 100 µM (inactive)
HCC 2998
  GI50: > 100 µM (inactive)
HCT-116
  GI50: > 100 µM (inactive)
HCT-15
  GI50: > 100 µM
HOP-18
  GI50: > 100 µM (inactive)
HOP-62
  GI50: > 100 µM (inactive)
HOP-92
  GI50: > 100 µM (inactive)
HT-29
  GI50: > 100 µM (inactive)
IGROV-1
  GI50: > 100 µM (inactive)
K562
  GI50: > 100 µM (inactive)
KM-20L2
  GI50: > 44.7 µM (inactive)
KM12
  GI50: > 100 µM (inactive)
LOX IMVI
  GI50: > 100 µM (inactive)
LXFL 529
  GI50: > 100 µM (inactive)
M14
  GI50: > 100 µM (inactive)
M19-MEL
  GI50: > 100 µM (inactive)
MOLT-4
  GI50: > 100 µM (inactive)
Malme-3M
  GI50: > 100 µM (inactive)
NCI-H226
  GI50: > 100 µM (inactive)
NCI-H23
  GI50: > 100 µM (inactive)
NCI-H460
  GI50: > 100 µM (inactive)
NCI-H522
  GI50: > 100 µM (inactive)
OVCAR-3
  GI50: > 100 µM (inactive)
OVCAR-4
  GI50: > 100 µM (inactive)
OVCAR-5
  GI50: > 100 µM (inactive)
OVCAR-8
  GI50: > 100 µM (inactive)
RPMI-8226
  GI50: > 100 µM (inactive)
RXF 393
  GI50: > 100 µM (inactive)
SF-268
  GI50: > 100 µM (inactive)
SF-295
  GI50: > 100 µM (inactive)
SF-539
  GI50: > 79.8 µM (inactive)
SK-MEL-28
  GI50: > 100 µM (inactive)
SK-MEL-2
  GI50: > 100 µM (inactive)
SK-MEL-5
  GI50: > 100 µM (inactive)
SK-OV-3
  GI50: > 100 µM (inactive)
SN12C
  GI50: > 100 µM (inactive)
SNB-19
  GI50: > 100 µM (inactive)
SNB-75
  GI50: > 52.2 µM (inactive)
SNB-78
  GI50: > 61.5 µM (inactive)
SR
  GI50: > 100 µM (inactive)
SW-620
  GI50: > 82.2 µM (inactive)
TK-10
  GI50: > 100 µM (inactive)
U-251
  GI50: > 100 µM (inactive)
UACC-257
  GI50: > 100 µM (inactive)
UACC-62
  GI50: > 100 µM (inactive)
UO-31
  GI50: > 100 µM (inactive)
